PubChem BioAssay AID248 (DTP/NCI, 2004)
Several values for one entry are separate records, joined by “and”; a condition that tells them apart may be missing. Identical values can stand only once. Inconclusive results and toxic doses are left out.

Test system: L1210 leukemia ip in BDF1 mice, survival T/C
Test: NCI In Vivo Anticancer Drug Screen. Data for tumor model L1210 Leukemia (intraperitoneal) in B6D2F1 (BDF1) mice
Conditions: endpoint: mean survival time, higher = longer survival
Outline: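 Value reflects the ratio of survival in compound-treated mice to survival in vehicle-treated controls, with both groups carrying the same transplanted tumor.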

Compound: N=[N+]=CC(=O)CCC(NC(=O)C(CCC(=O)C=[N+]=N)NC(=O)CCC(N)C(=O)O)C(=O)O (stereo unspecified)
- T/C (dose: 0.01 mg/kg/injection, schedule: Q01DX009 (ip), vehicle: water): 114 % of control
- T/C (dose: 0.02 mg/kg/injection, schedule: Q01DX009 (ip), vehicle: other): 110 % of control
- T/C (dose: 0.02 mg/kg/injection, schedule: Q01DX015 (ip), vehicle: water): 93 % of control
- T/C (dose: 0.05 mg/kg/injection, schedule: Q01DX009 (ip), vehicle: other): 102 % of control and 115 % of control
- T/C (dose: 0.05 mg/kg/injection, schedule: Q01DX015 (ip), vehicle: water): 102 % of control
- T/C (dose: 0.05 mg/kg/injection, schedule: Q01DX017 (ip), vehicle: saline): 98 % of control and 106 % of control
- T/C (dose: 0.05 mg/kg/injection, schedule: Q02DX009 (ip), vehicle: saline): 98 % of control
- T/C (dose: 0.05 mg/kg/injection, schedule: Q03HX024 (ip), vehicle: water): 93 % of control
- T/C (dose: 0.07 mg/kg/injection, schedule: Q01DX009 (ip), vehicle: water): 156 % of control
- T/C (dose: 0.1 mg/kg/injection, schedule: Q01DX009 (ip), vehicle: other): 117 % of control
- T/C (dose: 0.1 mg/kg/injection, schedule: Q01DX015 (ip), vehicle: water): 108 % of control
- T/C (dose: 0.1 mg/kg/injection, schedule: Q01DX017 (ip), vehicle: saline): 123 % of control
- T/C (dose: 0.1 mg/kg/injection, schedule: Q02DX009 (ip), vehicle: saline): 116 % of control
- T/C (dose: 0.1 mg/kg/injection, schedule: Q04DX005 (ip), vehicle: saline): 102 % of control
- T/C (dose: 0.2 mg/kg/injection, schedule: Q01DX009 (ip), vehicle: other): 107 % of control
- T/C (dose: 0.2 mg/kg/injection, schedule: Q01DX017 (ip), vehicle: saline): 158 % of control
- T/C (dose: 0.2 mg/kg/injection, schedule: Q02DX009 (ip), vehicle: saline): 123 % of control
- T/C (dose: 0.2 mg/kg/injection, schedule: Q04DX005 (ip), vehicle: saline): 104 % of control
- T/C (dose: 0.2 mg/kg/injection, schedule: Q08DX003 (ip), vehicle: saline): 112 % of control
- T/C (dose: 0.4 mg/kg/injection, schedule: Q01DX015 (ip), vehicle: other): 117 % of control
- T/C (dose: 0.4 mg/kg/injection, schedule: Q01DX015 (ip), vehicle: water): 153 % of control
- T/C (dose: 0.4 mg/kg/injection, schedule: Q01DX017 (ip), vehicle: saline): 110 % of control and 123 % of control
- T/C (dose: 0.4 mg/kg/injection, schedule: Q04DX005 (ip), vehicle: saline): 121 % of control
- T/C (dose: 0.4 mg/kg/injection, schedule: Q08DX003 (ip), vehicle: saline): 107 % of control
- T/C (dose: 0.6 mg/kg/injection, schedule: Q01DX015 (ip), vehicle: water): 183 % of control
- T/C (dose: 0.8 mg/kg/injection, schedule: Q04DX005 (ip), vehicle: saline): 118 % of control
- T/C (dose: 0.8 mg/kg/injection, schedule: Q08DX003 (ip), vehicle: saline): 109 % of control
- T/C (dose: 1.0 mg/kg/injection, schedule: Q01DX009 (oral), vehicle: water): 96 % of control
- T/C (dose: 1.0 mg/kg/injection, schedule: Q02DX005 (ip), vehicle: other): 160 % of control
- T/C (dose: 1.0 mg/kg/injection, schedule: Q02DX005 (oral), vehicle: other): 163 % of control
- T/C (dose: 1.25 mg/kg/injection, schedule: Q02DX008 (ip), vehicle: other): 189 % of control
- T/C (dose: 1.25 mg/kg/injection, schedule: Q02DX008 (ip), vehicle: water): 166 % of control
- T/C (dose: 1.25 mg/kg/injection, schedule: Q02DX008 (oral), vehicle: water): 156 % of control
- T/C (dose: 1.6 mg/kg/injection, schedule: Q08DX003 (ip), vehicle: saline): 110 % of control
- T/C (dose: 2.0 mg/kg/injection, schedule: Q02DX005 (oral), vehicle: other): 186 % of control
- T/C (dose: 2.5 mg/kg/injection, schedule: Q02DX008 (oral), vehicle: water): 154 % of control
- T/C (dose: 4.0 mg/kg/injection, schedule: Q02DX005 (ip), vehicle: other): 176 % of control
- T/C (dose: 4.0 mg/kg/injection, schedule: Q02DX005 (oral), vehicle: other): 195 % of control
- T/C (dose: 5.0 mg/kg/injection, schedule: Q02DX008 (ip), vehicle: other): 206 % of control
- T/C (dose: 5.0 mg/kg/injection, schedule: Q04DX003 (ip), vehicle: other): 155 % of control
- T/C (dose: 5.0 mg/kg/injection, schedule: Q04DX003 (ip), vehicle: saline): 170 % of control
- T/C (dose: 6.0 mg/kg/injection, schedule: Q02DX005 (ip), vehicle: other): 197 % of control
- T/C (dose: 6.0 mg/kg/injection, schedule: Q02DX005 (oral), vehicle: other): 204 % of control
- T/C (dose: 6.2 mg/kg/injection, schedule: Q03HX024 (ip), vehicle: water): 193 % of control
- T/C (dose: 8.0 mg/kg/injection, schedule: Q02DX005 (ip), vehicle: other): 183 % of control
- T/C (dose: 8.0 mg/kg/injection, schedule: Q02DX005 (oral), vehicle: other): 200 % of control
- T/C (dose: 10.0 mg/kg/injection, schedule: Q02DX008 (ip), vehicle: other): 117 % of control
- T/C (dose: 10.0 mg/kg/injection, schedule: Q02DX008 (oral), vehicle: other): 166 % of control
- T/C (dose: 10.0 mg/kg/injection, schedule: Q04DX003 (ip), vehicle: other): 155 % of control and 173 % of control
- T/C (dose: 10.0 mg/kg/injection, schedule: Q04DX003 (ip), vehicle: saline): 192 % of control
- T/C (dose: 10.0 mg/kg/injection, schedule: Q04DX003 (ip), vehicle: water): 167 % of control
- T/C (dose: 12.5 mg/kg/injection, schedule: Q01DX001 (ip), vehicle: clinical formulation): 112 % of control
- T/C (dose: 12.5 mg/kg/injection, schedule: Q01DX001 (ip), vehicle: saline): 119 % of control and 122 % of control
- T/C (dose: 12.5 mg/kg/injection, schedule: Q03HX024 (ip), vehicle: water): 97 % of control
- T/C (dose: 15.0 mg/kg/injection, schedule: Q02DX008 (oral), vehicle: other): 104 % of control
- T/C (dose: 15.0 mg/kg/injection, schedule: Q## X003 (ip), vehicle: water): 185 % of control
- T/C (dose: 20.0 mg/kg/injection, schedule: Q02DX008 (oral), vehicle: other): 116 % of control
- T/C (dose: 20.0 mg/kg/injection, schedule: Q04DX003 (ip), vehicle: other): 166 % of control
- T/C (dose: 20.0 mg/kg/injection, schedule: Q04DX003 (ip), vehicle: saline): 188 % of control
- T/C (dose: 20.0 mg/kg/injection, schedule: Q04DX003 (ip), vehicle: water): 167 % of control and 171 % of control
- T/C (dose: 20.0 mg/kg/injection, schedule: Q## X006 (ip), vehicle: water): 156 % of control
- T/C (dose: 25.0 mg/kg/injection, schedule: Q01DX001 (ip), vehicle: clinical formulation): 123 % of control
- T/C (dose: 25.0 mg/kg/injection, schedule: Q07DX002 (ip), vehicle: water): 156 % of control and 167 % of control
- T/C (dose: 30.0 mg/kg/injection, schedule: Q04DX003 (ip), vehicle: other): 202 % of control
- T/C (dose: 30.0 mg/kg/injection, schedule: Q## X003 (ip), vehicle: water): 209 % of control
- T/C (dose: 40.0 mg/kg/injection, schedule: Q04DX003 (ip), vehicle: saline): 170 % of control
- T/C (dose: 40.0 mg/kg/injection, schedule: Q04DX003 (ip), vehicle: water): 200 % of control and 206 % of control
- T/C (dose: 40.0 mg/kg/injection, schedule: Q## X003 (ip), vehicle: water): 194 % of control
- T/C (dose: 40.0 mg/kg/injection, schedule: Q## X006 (ip), vehicle: water): 188 % of control
- T/C (dose: 50.0 mg/kg/injection, schedule: Q01DX001 (ip), vehicle: saline): 150 % of control
- T/C (dose: 50.0 mg/kg/injection, schedule: Q01DX001 (ip), vehicle: water): 111 % of control
- T/C (dose: 50.0 mg/kg/injection, schedule: Q07DX002 (ip), vehicle: other): 158 % of control
- T/C (dose: 50.0 mg/kg/injection, schedule: Q## X003 (ip), vehicle: water): 178 % of control
- T/C (dose: 60.0 mg/kg/injection, schedule: Q04DX003 (ip), vehicle: water): 195 % of control
- T/C (dose: 60.0 mg/kg/injection, schedule: Q## X003 (ip), vehicle: water): 185 % of control
- T/C (dose: 60.0 mg/kg/injection, schedule: Q## X006 (ip), vehicle: water): 115 % of control
- T/C (dose: 75.0 mg/kg/injection, schedule: Q07DX002 (ip), vehicle: water): 192 % of control
- T/C (dose: 80.0 mg/kg/injection, schedule: Q04DX003 (ip), vehicle: saline): 100 % of control
- T/C (dose: 80.0 mg/kg/injection, schedule: Q04DX003 (ip), vehicle: water): 159 % of control
- T/C (dose: 80.0 mg/kg/injection, schedule: Q## X006 (ip), vehicle: water): 115 % of control
- T/C (dose: 100.0 mg/kg/injection, schedule: Q01DX001 (ip), vehicle: clinical formulation): 153 % of control
- T/C (dose: 100.0 mg/kg/injection, schedule: Q07DX002 (ip), vehicle: other): 171 % of control
- T/C (dose: 100.0 mg/kg/injection, schedule: Q07DX002 (ip), vehicle: water): 194 % of control
- T/C (dose: 150.0 mg/kg/injection, schedule: Q07DX002 (ip), vehicle: water): 194 % of control
- T/C (dose: 200.0 mg/kg/injection, schedule: Q01DX001 (ip), vehicle: other): 158 % of control
- T/C (dose: 200.0 mg/kg/injection, schedule: Q01DX001 (ip), vehicle: saline): 96 % of control
- T/C (dose: 200.0 mg/kg/injection, schedule: Q01DX001 (ip), vehicle: water): 109 % of control
- T/C (dose: 200.0 mg/kg/injection, schedule: Q01DX001 (oral), vehicle: other): 155 % of control
- T/C (dose: 250.0 mg/kg/injection, schedule: Q01DX001 (ip), vehicle: water): 117 % of control
- T/C (dose: 300.0 mg/kg/injection, schedule: Q01DX001 (ip), vehicle: other): 101 % of control
- T/C (dose: 300.0 mg/kg/injection, schedule: Q01DX001 (ip), vehicle: water): 96 % of control and 106 % of control
